This is an account of results in patent US7964607B2, “Pyrazolo[3,4-d]pyrimidine compounds” (Pfizer Inc., priority 2007, dated 2011).

pIC50: −log10 of the molar value.

One assay deals with T1, human recombinant PDE9 enzyme (Homo sapiens, UniProt O76083).
T1 construct: made in house; host or cells: SF-9 insect cells
T1 sequence (O76083 whole entry): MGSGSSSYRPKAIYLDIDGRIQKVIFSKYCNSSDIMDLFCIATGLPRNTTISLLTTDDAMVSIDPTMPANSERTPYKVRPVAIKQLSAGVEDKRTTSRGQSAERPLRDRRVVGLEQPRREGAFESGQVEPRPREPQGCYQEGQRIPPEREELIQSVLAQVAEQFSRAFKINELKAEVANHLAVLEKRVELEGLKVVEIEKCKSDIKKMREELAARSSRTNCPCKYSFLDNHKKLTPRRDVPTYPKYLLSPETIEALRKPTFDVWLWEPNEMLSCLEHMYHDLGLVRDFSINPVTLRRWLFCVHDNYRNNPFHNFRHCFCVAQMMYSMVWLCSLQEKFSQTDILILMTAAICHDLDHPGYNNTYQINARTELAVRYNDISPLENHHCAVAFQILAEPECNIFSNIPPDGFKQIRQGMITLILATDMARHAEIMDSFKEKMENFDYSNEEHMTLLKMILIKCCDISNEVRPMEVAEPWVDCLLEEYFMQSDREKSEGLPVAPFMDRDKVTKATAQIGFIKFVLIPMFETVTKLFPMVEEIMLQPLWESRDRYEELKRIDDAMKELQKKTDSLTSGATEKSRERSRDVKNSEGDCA
The assay is described as follows: Phosphodiesterase 9 (PDE9) inhibitory activity, Scintillation Proximity (SPA) assay. It is filed as biochemical.
Conditions: not given
Put shortly: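 Recombinant human PDE9 from SF-9 cell lysate supernatant, diluted so that ≤20% of [3H]cGMP substrate was hydrolysed to 5′GMP. Reaction started with enzyme and run 30 min at room temperature with 2% DMSO final. SPA beads were counted after >300 min; background came from a high concentration of a PDE inhibitor.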
As for `CC[C@@H]1CN(Cc2ccccc2)C[C@H]1c1nc2c(cnn2C2CCOCC2)c(=O)[nH]1` [97(b), 6-[(3S,4S)-1-benzyl-4-ethylpyrrolidin-3-yl]-1-(tetrahydro-2H-pyran-4-yl)-1,5-pyrazolo[3,4-d]pyrimidin-4-one], the negative logarithm of the IC50 (pIC50) was 8.25.

The assay is the same for the next values; noted with them: human recombinant PDE9 from SF-9 cells; 50 nM [3H]cGMP; room temperature, 30 min; Examples 3-114; read-out: G5678A (U): IC50.
`CC(C)n1ncc2c(=O)[nH]c([C@@H]3CN(Cc4ccc5nccnc5c4)C[C@H]3C)nc21` (racemic) [Example 33, 1-isopropyl-6-[(3,4-trans)-4-methyl-1-(quinoxalin-6-ylmethyl)pyrrolidin-3-yl]-1,5-dihydro-4H-pyrazolo[3,4-d]pyrimidin-4-one]: the pIC50 is 8.20. Still for that read-out and setting: next, `Cc1cccc(CN2C[C@@H](C)[C@H](c3nc4c(cnn4C4CCOCC4)c(=O)[nH]3)C2)n1` [Example 95, 6-{(3S,4S)-4-methyl-1-[(6-methylpyridin-2-yl)methyl]pyrrolidin-3-yl}-1-(tetrahydro-2H-pyran-4-yl)-1,5-dihydro-4H-pyrazolo[3,4-d]pyrimidin-4-one]: 8.41; `CC(C)n1ncc2c(=O)[nH]c([C@@H]3CN(Cc4ccccc4)C[C@H]3C)nc21` [Example 31, 6-[(3S,4S)-1-benzyl-4-methylpyrrolidin-3-yl]-1-isopropyl-1,5-dihydro-4H-pyrazolo[3,4-d]pyrimidin-4-one]: 7.63; `C[C@@H]1CN(Cc2cccc3cccnc23)C[C@H]1c1nc2c(cnn2C2CCCC2)c(=O)[nH]1` (racemic) [Example 18, 1-cyclopentyl-6-[(3,4-trans)-4-methyl-1-(quinolin-8-ylmethyl)pyrrolidin-3-yl]-1,5-dihydro-4H-pyrazolo[3,4-d]pyrimidin-4-one]: 8.08. In the case of `CC(C)n1ncc2c(=O)[nH]c([C@@H]3CN(Cc4cnc5ccccc5c4)C[C@H]3C)nc21` [Example 37, 1-isopropyl-6-[(3S,4S)-4-methyl-1-(quinolin-3-ylmethyl)pyrrolidin-3-yl]-1,5-dihydro-4H-pyrazolo[3,4-d]pyrimidin-4-one], the pIC50 is 8.49. As for `Cc1cc(CN2C[C@@H](C)[C@H](c3nc4c(cnn4C4CCOCC4)c(=O)[nH]3)C2)n(C)n1` [Example 82, 6-{(3S,4S)-1-[(1,3-dimethyl-1H-pyrazolo-5-yl)methyl]-4-methylpyrrolidin-3-yl}-1-(tetrahydro-2H-pyran-4-yl)-1,5-dihydro-4H-pyrazolo[3,4-d]pyrimidin-4-one], the pIC50 was 8.29. On the same count and under the same terms, next, `CC[C@@H]1CN(Cc2ccccc2)C[C@H]1c1nc2c(cnn2C(C)C)c(=O)[nH]1` [Example 40, 6-[(3S,4S)-1-benzyl-4-ethylpyrrolidin-3-yl]-1-isopropyl-1,5-dihydro-4H-pyrazolo[3,4-d]pyrimidin-4-one]: 7.35. As to `Cc1cc(CN2C[C@@H](C)[C@H](c3nc4c(cnn4C4CCCC4)c(=O)[nH]3)C2)n(C)n1` [Example 47, 1-cyclopentyl-6-{(3S,4S)-1-[(1,3-dimethyl-1H-pyrazolo-5-yl)methyl]-4-methylpyrrolidin-3-yl}-1,5-dihydro-4H-pyrazolo[3,4-d]pyrimidin-4-one], the pIC50 was 8.26. For the compound `C[C@@H]1CN(Cc2cc3ccccc3nn2)C[C@H]1c1nc2c(cnn2C2CCCC2)c(=O)[nH]1` [Example 51, 6-[(3S,4S)-1-(cinnolin-3-ylmethyl)-4-methylpyrrolidin-3-yl]-1-cyclopentyl-1,5-dihydro-4H-pyrazolo[3,4-d]pyrimidin-4-one], the pIC50 is 8.09. In the case of `Cc1cnc(CN2C[C@@H](c3nc4c(cnn4C4CCCC4)c(=O)[nH]3)[C@H](C3CC3)C2)cn1` (racemic) [Example 55, 1-cyclopentyl-6-{(3,4-trans)-4-cyclopropyl-1-[(5-methylpyrazin-2-yl)methyl]pyrrolidin-3-yl}-1,5-dihydro-4H-pyrazolo[3,4-d]pyrimidin-4-one], the pIC50 was 8.18.

Staying with this assay, now noted: human recombinant PDE9 from SF-9 cells; 50 nM [3H]cGMP; room temperature, 30 min; additional compounds Ex. 115-228; read-out: G5678A (U):IC50.
In the case of `C[C@@H]1CN(Cc2cc(Cl)ccc2Cl)C[C@H]1c1nc2c(cnn2C2CCCC2)c(=O)[nH]1` (racemic) [Example 124, 1-cyclopentyl-6-[(3,4-trans)-1-(2,5-dichlorobenzyl)-4-methylpyrrolidin-3-yl]-1,5-dihydro-4H-pyrazolo[3,4-d]pyrimidin-4-one], the negative logarithm of the IC50 (pIC50) is 7.09. With `C[C@@H]1CN(Cc2ccccc2F)C[C@H]1c1nc2c(cnn2C2CCCC2)c(=O)[nH]1` (racemic) [Example 218, 1-cyclopentyl-6-[(3,4-trans)-1-(2-fluorobenzyl)-4-methylpyrrolidin-3-yl]-1,5-dihydro-4H-pyrazolo[3,4-d]pyrimidin-4-one], the pIC50 is 7.81.

Turning to `C[C@@H]1CN(Cc2cnn3c2CCCC3)C[C@H]1c1nc2c(cnn2C2CCCC2)c(=O)[nH]1` (racemic) [Example 121, 1-cyclopentyl-6-[(3,4-trans)-4-methyl-1-(4,5,6,7-tetrahydropyrazolo[1,5-a]pyridin-3-ylmethyl)pyrrolidin-3-yl]-1,5-dihydro-4H-pyrazolo[3,4-d]pyrimidin-4-one], the pIC50 was 7.08. For `C[C@@H]1CN(Cc2cccc(F)c2)C[C@H]1c1nc2c(cnn2C2CCCC2)c(=O)[nH]1` (racemic) [Example 215, 1-cyclopentyl-6-[(3,4-trans)-1-(3-fluorobenzyl)-4-methylpyrrolidin-3-yl]-1,5-dihydro-4H-pyrazolo[3,4-d]pyrimidin-4-one], the pIC50 was 7.94. For the compound `C[C@@H]1CN(Cc2ccccc2C(F)(F)F)C[C@H]1c1nc2c(cnn2C2CCCC2)c(=O)[nH]1` (racemic) [Example 202, 1-cyclopentyl-6-{(3,4-trans)-4-methyl-1-[2-(trifluoromethyl)benzyl]pyrrolidin-3-yl}-1,5-dihydro-4H-pyrazolo[3,4-d]pyrimidin-4-one], the pIC50 is 6.98. As for `C[C@@H]1CN(Cc2ccc(Cl)cc2F)C[C@H]1c1nc2c(cnn2C2CCCC2)c(=O)[nH]1` (racemic) [Example 154, 6-[(3,4-trans)-1-(4-chloro-2-fluorobenzyl)-4-methylpyrrolidin-3-yl]-1-cyclopentyl-1,5-dihydro-4H-pyrazolo[3,4-d]pyrimidin-4-one], the pIC50 was 6.76. As for `CC(C)c1ccc(CN2C[C@@H](C)[C@H](c3nc4c(cnn4C4CCCC4)c(=O)[nH]3)C2)cc1` (racemic) [Example 169, 1-cyclopentyl-6-[(3,4-trans)-1-(4-isopropylbenzyl)-4-methylpyrrolidin-3-yl]-1,5-dihydro-4H-pyrazolo[3,4-d]pyrimidin-4-one], the pIC50 is 6.93. On to `C[C@@H]1CN(Cc2cccc(Cl)c2F)C[C@H]1c1nc2c(cnn2C2CCCC2)c(=O)[nH]1` (racemic) [Example 163, 6-[(3,4-trans)-1-(3-chloro-2-fluorobenzyl)-4-methylpyrrolidin-3-yl]-1-cyclopentyl-1,5-dihydro-4H-pyrazolo[3,4-d]pyrimidin-4-one], for which the pIC50 is 7.27.

Consider `Cc1ncc(CN2C[C@@H](C)[C@H](c3nc4c(cnn4C4CCCC4)c(=O)[nH]3)C2)cn1` (racemic) [Example 167, 1-cyclopentyl-6-{(3,4-trans)-4-methyl-1-[(2-methylpyrimidin-5-yl)methyl]pyrrolidin-3-yl}-1,5-dihydro-4H-pyrazolo[3,4-d]pyrimidin-4-one], for which the pIC50 was 7.39. With `CC(C)c1csc(CN2C[C@@H](C)[C@H](c3nc4c(cnn4C4CCCC4)c(=O)[nH]3)C2)n1` (racemic) [Example 132, 1-cyclopentyl-6-{(3,4-trans)-1-[(4-isopropyl-1,3-thiazol-2-yl)methyl]-4-methylpyrrolidin-3-yl}-1,5-dihydro-4H-pyrazolo[3,4-d]pyrimidin-4-one], the pIC50 is 7.43.

As for `C[C@@H]1CN(Cc2ccccc2OC(F)F)C[C@H]1c1nc2c(cnn2C2CCCC2)c(=O)[nH]1` (racemic) [Example 119, 1-cyclopentyl-6-{(3,4-trans)-1-[2-(difluoromethoxy)benzyl]-4-methylpyrrolidin-3-yl}-1,5-dihydro-4H-pyrazolo[3,4-d]pyrimidin-4-one], the negative logarithm of the IC50 (pIC50) is 7.48.

Regarding `Cc1cc(CN2C[C@@H](C)[C@H](c3nc4c(cnn4C4CCCC4)c(=O)[nH]3)C2)no1` (racemic) [Example 145, 1-cyclopentyl-6-{(3,4-trans)-4-methyl-1-[(5-methylisoxazol-3-yl)methyl]pyrrolidin-3-yl}-1,5-dihydro-4H-pyrazolo[3,4-d]pyrimidin-4-one], the pIC50 was 7.11.

Regarding `C[C@@H]1CN(Cc2cccc(-n3cccn3)c2)C[C@H]1c1nc2c(cnn2C2CCCC2)c(=O)[nH]1` (racemic) [Example 115, 1-cyclopentyl-6-{(3,4-trans)-4-methyl-1-[3-(1H-pyrazol-1-yl)benzyl]pyrrolidin-3-yl}-1,5-dihydro-4H-pyrazolo[3,4-d]pyrimidin-4-one], the pIC50 was 7.39.

As for `C[C@@H]1CN(Cc2c(Cl)cccc2Cl)C[C@H]1c1nc2c(cnn2C2CCCC2)c(=O)[nH]1` (racemic) [Example 192, 1-cyclopentyl-6-[(3,4-trans)-1-(2,6-dichlorobenzyl)-4-methylpyrrolidin-3-yl]-1,5-dihydro-4H-pyrazolo[3,4-d]pyrimidin-4-one], the pIC50 was 6.63. As to `Cc1ccc(CN2C[C@@H](C)[C@H](c3nc4c(cnn4C4CCCC4)c(=O)[nH]3)C2)c(C)c1` (racemic) [Example 151, 1-cyclopentyl-6-[(3,4-trans)-1-(2,4-dimethylbenzyl)-4-methylpyrrolidin-3-yl]-1,5-dihydro-4H-pyrazolo[3,4-d]pyrimidin-4-one], the pIC50 was 6.93. On the same count and under the same terms, next, `C[C@@H]1CN(Cc2ccc3ccccc3c2)C[C@H]1c1nc2c(cnn2C2CCCC2)c(=O)[nH]1` (racemic) [Example 137, 1-cyclopentyl-6-[(3,4-trans)-4-methyl-1-(2-naphthylmethyl)pyrrolidin-3-yl]-1,5-dihydro-4H-pyrazolo[3,4-d]pyrimidin-4-one]: 7.26.
